Laboratory results reported in publication PMC10009755, “Discovery and Characterization of BAY-805, a Potent and Selective Inhibitor of Ubiquitin-Specific Protease USP21” (Journal of Medicinal Chemistry, 2023).
≈ marks a conversion by molar mass, not a printed value. Like-named read-outs stand apart in the source and are kept apart here.

Legend:
USP2 = biological target: T1, USP2 (Homo sapiens, UniProt O75604); test: hUSP2 Ub-rhodamine 110 assay; format: biochemical; conditions: for IC50: arithmetic means of multiple measurements, read-out: IC50 hUSP2 Ub-Rhod
T1 construct: His tag
T1 sequence (O75604 259-605): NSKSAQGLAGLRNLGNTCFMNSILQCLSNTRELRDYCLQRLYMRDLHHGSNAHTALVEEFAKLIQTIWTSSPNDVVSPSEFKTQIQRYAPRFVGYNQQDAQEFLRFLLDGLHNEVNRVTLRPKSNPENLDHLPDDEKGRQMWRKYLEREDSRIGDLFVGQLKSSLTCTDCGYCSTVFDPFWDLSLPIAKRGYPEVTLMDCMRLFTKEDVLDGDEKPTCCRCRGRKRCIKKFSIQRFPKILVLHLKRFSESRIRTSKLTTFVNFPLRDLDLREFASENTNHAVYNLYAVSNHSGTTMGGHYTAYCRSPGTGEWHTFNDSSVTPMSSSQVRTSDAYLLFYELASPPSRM
Description: The final assay volume was 6 μL.

log D measurement (HPLC) = format: physicochemical; conditions: for chromatographic logD: reverse-phase HPLC, pH 7.5, pH 7.5, HPLC method, read-out: logD7.5; for logD7.5: pH 7.5, HPLC method
Description: log D values at pH 7.5 were recorded using an indirect method for determining hydrophobicity constants by reverse-phase HPLC. A series of compounds with well-known log D values were used for calibration. Test compounds were injected into the same HPLC system. The lipophilicity of compounds was then assessed by comparison to the calibration curve.

USP21 [1] = biological target: T2, USP21 (Homo sapiens, UniProt Q9UK80)
T2 sequence (Q9UK80 1-565): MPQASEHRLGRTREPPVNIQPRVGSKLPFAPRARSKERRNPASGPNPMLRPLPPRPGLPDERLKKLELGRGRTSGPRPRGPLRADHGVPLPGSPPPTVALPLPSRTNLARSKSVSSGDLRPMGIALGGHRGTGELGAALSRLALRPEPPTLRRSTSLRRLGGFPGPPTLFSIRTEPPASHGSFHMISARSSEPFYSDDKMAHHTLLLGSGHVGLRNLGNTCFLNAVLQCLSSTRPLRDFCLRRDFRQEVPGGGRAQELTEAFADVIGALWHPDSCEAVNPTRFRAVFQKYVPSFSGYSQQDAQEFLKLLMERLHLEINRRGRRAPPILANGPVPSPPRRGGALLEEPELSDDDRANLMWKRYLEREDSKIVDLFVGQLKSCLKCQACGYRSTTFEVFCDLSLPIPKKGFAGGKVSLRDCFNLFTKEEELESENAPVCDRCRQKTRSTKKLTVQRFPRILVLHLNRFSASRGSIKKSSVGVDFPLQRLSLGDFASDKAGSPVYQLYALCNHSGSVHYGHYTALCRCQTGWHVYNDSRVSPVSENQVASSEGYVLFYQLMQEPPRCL
Description: To this end, we developed a USP21 activity assay that is based on the deubiquitination of a STING-derived peptide (a USP21-specific substrate[17],[18]) by purified recombinant human full-length USP21 using time-resolved fluorescence resonance energy transfer (TR-FRET) technology (referred to as a homogeneous time-resolved fluorescence (HTRF)-assay, for details see the Supporting Information).[39]
All substrate and enzyme solutions were diluted in an assay buffer. […] Incubation time was 15–20 min at room temperature. […] The stop solution (DUB inhibitor PR619, Abcam) was prepared in 25 mM HEPES, pH 7.5 (Alfa Aesar) containing 0.01% BSA and then left for 10 min at room temperature before filtering with a 0.2 μM PES Membrane (Thermo Fisher). The reaction was stopped with the addition of 2 μL of 200 μM PR619. […] The plates were measured on the ViewLux in screening or PHERAstar FSX in compound profiling. […] The number of flashes per well was set to 3. All of the experimental data were plotted using Genedata analysis. The Z′-factor and S/B of the assay were >0.7 and ∼2, respectively.

USP21 [2] = biological target: T2, USP21; remark: listed apart in the source
Description: The final assay volume was 6 μL. […] First, 2 μL of 1 nM USP21 (or selectivity enzyme) solution was added to the compound plate and preincubated for 15–20 min at room temperature. […] The reaction was stopped by 50 mM citric acid in 25 mM HEPES, pH 7.5, containing 0.01% BSA. […] The USP21 and USP22 were measured with five flashes and USP2 and USP7 in fly mode.

USP21 [3] = biological target: T2, USP21; test: Thermal shift assay (TSA); format: binding; design: purchased Ubiquigent (DUBprofiler service); conditions: 100 μM compound
Description: Experiments were carried out with the QuantStudio7 Flex Real-Time PCR system (Thermo Fisher Scientific) in a 384-well plate format with 5 μL of reaction volume. Melting curves were obtained at an USP21 protein concentration of 3.8 μM and 5xSYPRO Orange (Invitrogen) using a buffer containing 20 mM Tris, pH 7.5; 150 mM NaCl; 10% glycerol; and 1.0 mM TCEP. […] For binding experiments, compounds were added from 10 mM stock solution to a final concentration of 100 μM. As a control, 1% DMSO was used. Scans were measured from 25 to 95 °C at a scanning rate of 4 °C/min. All TSA data were analyzed using a Genedata Assay Analyzer.

Aqueous solubility = format: physicochemical; conditions: PBS pH 6.5, pH 6.5, PBS pH 6.5
Description: Test compounds were applied as DMSO solutions or directly from powder. After the addition of the buffer, solutions were shaken at rt for 24 h. The undissolved material was removed by filtration or centrifugation. The compound dissolved in the supernatant was quantified by HPLC-UV or HPLC-MS/MS.

in vitro = in vitro ADME; conditions: human, Caco-2, pH 7.2
Description: Caco-2 cells [purchased from the German Collection of Microorganisms and Cell Cultures (DSMZ)] were seeded at a density of 4.5 × 10^4 cells/well on 24-well insert plates [0.4 μm pore size, 0.3 cm^2 (Costar)] and grown for 13–15 days in DMEM medium supplemented with 10% fetal calf serum (FCS), 1% GlutaMAX (100×, Gibco), 100 U/mL penicillin, 100 μg/mL streptomycin (Gibco), and 1% nonessential amino acids (100×, Thermo Fischer Scientific). […] The medium was changed every 2–3 days.
The bidirectional transport assay for the evaluation of Caco-2 permeability was undertaken in 24-well insert plates using a robotic system (Tecan). Before the assay was run, the culture medium was replaced by a transport medium (FCS-free HEPES carbonate transport buffer pH 7.2). For the assessment of monolayer integrity, the transepithelial electrical resistance (TEER) was measured. Only monolayers with a TEER of at least 400 Ω·cm^2 were used. Test compounds were pre-dissolved in DMSO and added either to the apical or basolateral compartment at a final concentration of 2 μM. The evaluation was performed in triplicate. […] The efflux ratio (ER) basolateral (B) to apical (A) was calculated by dividing Papp B–A by Papp A–B.

NF-κB activation = test: NF-κB reporter assay; format: cell-based; conditions: HEK293T cells, up to 10 μM
Description: Yang and colleagues reported that USP21 inhibition induces NF-κB activation by preventing deubiquitination of RIP1.[15] K63 ubiquitinated RIP1 is required for NF-κB activation, and thus USP21-mediated deubiquitination of RIP1 shuts down the NF-κB pathway.
Four hours after replating, cells were treated with compounds or DMSO (note: DMSO concentrations were kept consistent across all cells). Promega Dual-Luciferase Reporter Assay kit was then used to prepare samples for Firefly and Renilla signal measurement on a CLARIOstar microplate reader (BMG) 20 h after compound treatment. Relative luciferase units were calculated by normalizing the Firefly signal to the background Renilla signal, followed by normalization to DMSO controls of wild-type USP21.

[4] = biological target: T3, C-terminal HiBiT-tagged USP21 (Homo sapiens, UniProt Q9UK80); test: USP21 HiBiT CETSA; format: cell-based; conditions: 49 °C, HEK293T cells
T3 construct: expressed in transfected cells; host or cells: HEK293T
T3 sequence (Q9UK80 1-565): T2 sequence (Q9UK80 1-565)
Description: In particular, we utilized a HiBiT CETSA assay format[42],[43] conducted in intact HEK293T cells. Cells were transfected with USP21 fused to a small proluminescent NanoLuc HiBiT tag, which, when complemented with the Large BiT NanoLuc fragment, produces a quantifiable luminescence signal.
HEK293T cells were seeded in a six-well plate at 8 × 10^5 cells/well in 2 mL of DMEM supplemented with 10% FBS, penicillin (100 U/mL), and streptomycin (100 μg/mL) and transfected 4 h after seeding using an X-tremeGENE HP transfection reagent, following the manufacturer’s instructions with a total of 2 μg of plasmid constructs (C-terminally tagged USP21 HiBiT and empty pCDNA3.1 vector). […] The breathable paper adhesive film was then replaced with a PCR adhesive film, and cells were heated at indicated temperatures in an Applied Biosystems VeritiPro thermal cycler for 3 min, followed by 3 min incubation at rt before the addition of LgBiT solution (200 nM LgBiT, 2% NP-40, protease inhibitors (Roche cOmplete, ethylenediaminetetraacetic acid (EDTA)-free Protease Inhibitor) in OptiMEM no phenol red (Gibco)) to lyse cells.

| SMILES | IC50 (USP2) [µM] | chromatographic logD (log D measurement (HPLC)) | IC50 (USP21 [1]) [µM] | IC50 (USP21 [2]) [µM] | solubility at 24 h (Aqueous solubility) [µM] | also measured |
| --- | --- | --- | --- | --- | --- | --- |
| CC(C)C(NC(=O)C1CCCC1)C(=O)Nc1nnc(Cc2ccc([N+](=O)[O-])cc2)s1 (stereo not shown) [Compound 3, CC(C)C(NC(=O)C1CCCC1)C(=O)Nc2nnc(Cc3ccc(cc3)[N+](=O)[O-])s2] | > 25 | 2.8 | > 25 | > 25 |  | ΔTm at 100 µM (USP21 [3]): 0.3 °C |
| COCC(NC(=O)C1CCOCC1)C(=O)Nc1nnc(Cc2ccc([N+](=O)[O-])cc2)s1 (stereo not shown) [Compound 8, COCC(NC(=O)C1CCOCC1)C(=O)Nc2nnc(Cc3ccc(cc3)[N+](=O)[O-])s2] | > 25 | 1.8 | > 25 | > 25 |  |  |
| COCC(NC(=O)C1(C)CCCCC1)C(=O)Nc1nnc(Cc2ccc([N+](=O)[O-])cc2)s1 (stereo not shown) [Compound 9, COCC(NC(=O)C1(C)CCCCC1)C(=O)Nc2nnc(Cc3ccc(cc3)[N+](=O)[O-])s2] | > 25 | 2.9 |  |  |  |  |
| COCC(NC(=O)c1ccccc1)C(=O)Nc1nnc(Cc2ccc([N+](=O)[O-])cc2)s1 (stereo not shown) [Compound 5, COCC(NC(=O)c1ccccc1)C(=O)Nc2nnc(Cc3ccc(cc3)[N+](=O)[O-])s2] | > 25 | 2.3 | 11.8 | > 20.2 |  |  |
| COC[C@@H](NC(=O)C1(C)CCCCC1)C(=O)Nc1nc(C)c(Cc2ccc(C#N)cc2)s1 [Compound 12, COC[C@@H](NC(=O)C1(C)CCCCC1)C(=O)Nc2nc(C)c(Cc3ccc(cc3)C#N)s2] |  |  |  |  | 19.4 (≈ 8.83 µg/mL) |  |
| COCC(NC(=O)C1CCCCC1)C(=O)Nc1nnc(Cc2ccc([N+](=O)[O-])cc2)s1 (stereo not shown) [Compound 7, COCC(NC(=O)C1CCCCC1)C(=O)Nc2nnc(Cc3ccc(cc3)[N+](=O)[O-])s2] | > 25 | 2.6 |  |  |  |  |
| COC[C@@H](NC(=O)C1(C)CCCCC1)C(=O)Nc1nnc(Cc2ccc([N+](=O)[O-])cc2)s1 [Compound 10, COC[C@@H](NC(=O)C1(C)CCCCC1)C(=O)Nc2nnc(Cc3ccc(cc3)[N+](=O)[O-])s2] | > 25 |  | 0.074 |  |  |  |
| COCC(NC(=O)C1CCCC1)C(=O)Nc1nnc(Cc2ccc([N+](=O)[O-])cc2)s1 (stereo not shown) [Compound 4, COCC(NC(=O)C1CCCC1)C(=O)Nc2nnc(Cc3ccc(cc3)[N+](=O)[O-])s2] |  | 2.4 |  |  |  |  |
| COC[C@@H](NC(=O)C1(C)CCCCC1)C(=O)Nc1sc(Cc2ccc(C#N)cc2)nc1C [Compound 13, COC[C@@H](NC(=O)C1(C)CCCCC1)C(=O)Nc2sc(Cc3ccc(cc3)C#N)nc2C] |  |  | 0.065 | > 25 |  |  |
| COCC(NC(=O)C(C)C)C(=O)Nc1nnc(Cc2ccc([N+](=O)[O-])cc2)s1 (stereo not shown) [Compound 6, COCC(NC(=O)C(C)C)C(=O)Nc1nnc(Cc2ccc(cc2)[N+](=O)[O-])s1] | > 25 | 2 | > 25 | > 25 |  |  |

Continued, in another order:

| IC50 (USP2) [µM] | chromatographic logD (log D measurement (HPLC)) | IC50 (USP21 [1]) [µM] | IC50 (USP21 [2]) [µM] | solubility at 24 h (Aqueous solubility) [µM] | SMILES | also measured |
| --- | --- | --- | --- | --- | --- | --- |
|  | 2.95 |  |  | 71 (≈ 32.4 µg/mL) | CCC1(C(=O)N[C@H](COC)C(=O)Nc2nnc(Cc3ccc(C#N)cc3)s2)CCCCC1 [Compound 14, CCC1(CCCCC1)C(=O)N[C@H](COC)C(=O)Nc2nnc(Cc3ccc(cc3)C#N)s2] |  |
|  | 2.95 |  |  | 10.4 (≈ 5.17 µg/mL) | COC[C@@H](NC(=O)C1(C(F)(F)F)CCCCC1)C(=O)Nc1nnc(Cc2ccc(C#N)cc2)s1 [Compound 17, COC[C@@H](NC(=O)C1(CCCCC1)C(F)(F)F)C(=O)Nc2nnc(Cc3ccc(cc3)C#N)s2] | logD7.5 (log D measurement (HPLC)): 3.0; Papp A→B at 2 h, 2 µM (in vitro; 2 μM, 2 h): 8.2 ×10⁻⁶ cm/s; efflux ratio at 2 h, 2 µM (in vitro; Papp B–A / Papp A–B, read-out: Caco-2 efflux ratio (ER)): 1.5 |
| > 25 | 2.7 |  |  | 126 (≈ 55.8 µg/mL) | COC[C@@H](NC(=O)C1(C)CCCCC1)C(=O)Nc1nnc(Cc2ccc(C#N)cc2)s1 [Compound 11, COC[C@@H](NC(=O)C1(C)CCCCC1)C(=O)Nc2nnc(Cc3ccc(cc3)C#N)s2] | selectivity against USP2 (USP2; vs USP21): > 780 fold; logD7.5 (log D measurement (HPLC)): 2.69; NF-κB activation (in words) (NF-κB activation): no NF-κB activation up to a concentration of 10 μM; cellular thermal stabilization of USP21 (in words) [4]: strong stabilization of USP21 |
|  | 2.68 |  |  | 131 (≈ 62.5 µg/mL) | COC[C@@H](NC(=O)C1(C(F)F)CCCCC1)C(=O)Nc1nnc(Cc2ccc(C#N)cc2)s1 [Compound 16, COC[C@@H](NC(=O)C1(CCCCC1)C(F)F)C(=O)Nc2nnc(Cc3ccc(cc3)C#N)s2] |  |
|  | 2.59 | 21.5 | > 25 | 181 (≈ 82.9 µg/mL) | COC[C@@H](NC(=O)C1(OC)CCCCC1)C(=O)Nc1nnc(Cc2ccc(C#N)cc2)s1 [Compound 15, COC[C@@H](NC(=O)C1(CCCCC1)OC)C(=O)Nc2nnc(Cc3ccc(cc3)C#N)s2] |  |
|  | 2.9 |  |  | 80.2 (≈ 40.9 µg/mL) | CC(C)(O)[C@@H](NC(=O)C1(C(F)(F)F)CCCCC1)C(=O)Nc1nnc(Cc2ccc(C#N)cc2)s1 [Compound 19, CC(C)(O)[C@@H](NC(=O)C1(CCCCC1)C(F)(F)F)C(=O)Nc2nnc(Cc3ccc(cc3)C#N)s2] |  |
